Results published in publication PMC7823661 (Viruses, 2020).
Where a name gives a salt, the structure may show the parent alone.

Experiments:
[1] = test system: Brazilian ZIKV strain (ZIKV-BR) in cervical cells; experiment: Plaque-forming reduction assay, supernatants of infected cervical cells; assay type: cell-based, Zika virus; conditions: for inhibition at 6 µM / inhibition at 12 µM / inhibition at 25 µM / EC50 / EC90: Zika virus; for inhibition at 6 µM: MOI 10, 6 µM; for inhibition at 6 µM / inhibition at 12 µM / inhibition at 25 µM: read-out: Cervical cells PFR (%); for inhibition at 25 µM: MOI 10, 25 µM; for EC50 / EC90: plaque-forming reduction, MOI 10, 48 h
[2] = test system: Brazilian ZIKV strain (ZIKV-BR) in cervical cells; experiment: Viral genome detection by RT-qPCR in supernatants of infected cervical cells; assay type: cell-based, Zika virus; conditions: supernatant of cervical cells; for reduction of viral load: 12 µM, compared to control; for ZIKV genome copies/mL: MOI 10, 12 µM, 48 h, control 6.7 ± 0.7 × 10^8
[3] = Cytotoxicity assay (PrestoBlue) in mock-infected cervical cells; assay type: cell-based; conditions: human
[4] = Cytotoxicity assay (PrestoBlue) in mock-infected Vero cells; assay type: cell-based; conditions: African green monkey, Vero cells (kidney)
[5] = test system: Brazilian ZIKV strain (ZIKV-BR) in Vero cells; experiment: Plaque-forming reduction assay, supernatants of infected Vero cells; assay type: cell-based, Zika virus; conditions: MOI 1, 12 µM, 48 h; for inhibition at 12 µM: Zika virus, read-out: Vero cells PFR (%)
[6] = test system: Brazilian ZIKV strain (ZIKV-BR) in cervical cells; assay type: cell-based, Zika virus; conditions: ZIKV-BR MOI 10, 12 µM, 48 h, versus 0.12% DMSO
[7] = test system: baby hamster kidney cells (BHK-21); conditions: cited from earlier work
[8] = test system: ZIKV strain MR766 in Vero cells; set-up: method as in earlier work; conditions: cited from earlier work
ZIKV-BR in Vero cells = conditions: read-out: concentration giving 50% of viral inhibition, MOI 0.1; cited from earlier work
[9] = test system: P. falciparum W2-chloroquine-resistant clone; conditions: in vitro, read-out: IC50 antiplasmodial; cited from earlier work
[10] = C33-A cervical epithelial cells (mock-infected), mock-infected cervical cells, 48 h, PrestoBlue, read-out: CC50 (μM)/48 h Cervical

Compound `Cc1ccc(S(=O)(=O)NCCCNc2ccnc3cc(Cl)ccc23)cc1` [C-Sd1, N-(3-((7-chloroquinolin-4-yl)amino)propyl)-4-methyl-benzenesulfonamide] has an inhibition at 6 µM ([1]; 48 h, 48 h) of 75.3 ± 1.3%, an inhibition at 12 µM ([1]; 48 h, MOI 10, 12 µM, 48 h) of 94.2 ± 0.5% and an inhibition at 25 µM ([1]; 48 h, 48 h) of 100%. The EC50 [1] was 3.6 ± 0.2 µM, the EC90 [1] was 9.6 ± 0.6 µM and the “reduction of viral load” value [2] was 2 logs. The “ZIKV genome copies/mL” value [2] was 1.0 ± 0.1 × 10^6 copies/mL, the CC50 at 48 h [3, 10] was 130 ± 2 µM and the CC50 at 48 h [4] was 97 ± 0.5 µM. It also gave an inhibition at 12 µM [5] of 100%.
For `O=S(=O)(NCCCNc1ccnc2cc(Cl)ccc12)c1ccc(Br)cc1` [C-Sd2, 4-Bromo-N-(3-((7-chloroquinolin-4-yl)amino)propyl)-benzenesulfonamide], the inhibition at 6 µM ([1]; 48 h, 48 h) was 80.8 ± 0.8%, the inhibition at 12 µM ([1]; 48 h, MOI 10, 12 µM, 48 h) was 93.7 ± 0.3% and the inhibition at 25 µM ([1]; 48 h, 48 h) was 100%. For the same compound, the EC50 [1] was 3.3 ± 0.2 µM, the EC90 [1] was 7.8 ± 0.4 µM and the “reduction of viral load” value [2] was 2 logs. The “ZIKV genome copies/mL” value [2] was 2.8 ± 0.4 × 10^6 copies/mL, the CC50 at 48 h [3, 10] was 112 ± 1.8 µM and the CC50 at 48 h [4] was 56.7 ± 0.4 µM. For the same compound, the inhibition at 12 µM [5] was 100%.
Compound `O=S(=O)(NCCCNc1ccnc2cc(Cl)ccc12)c1ccc(F)cc1` [C-Sd3, N-(3-((7-chloroquinolin-4-yl)amino)propyl)-4-fluorobenzenesulfonamide] has an inhibition at 6 µM ([1]; 48 h, 48 h) of 75 ± 1%, an inhibition at 12 µM ([1]; 48 h, MOI 10, 12 µM, 48 h) of 94 ± 0.7% and an inhibition at 25 µM ([1]; 48 h, 48 h) of 100%. The EC50 [1] was 3.7 ± 0.1 µM, the EC90 [1] was 10.1 ± 0.1 µM and the “reduction of viral load” value [2] was 2 logs. For the same compound, the “ZIKV genome copies/mL” value [2] was 4.9 ± 0.3 × 10^6 copies/mL, the CC50 at 48 h [3, 10] was over 200 µM and the CC50 at 48 h [4] was 141 ± 4.4 µM. For the same compound, the inhibition at 12 µM [5] was 100%.
In the case of `O=S(=O)(NCCCCNc1ccnc2cc(Cl)ccc12)c1ccccc1` [C-Sd4, N-(4-((7-chloroquinolin-4-yl)amino)butyl)-benzenesulfonamide], the inhibition at 6 µM ([1]; 48 h, 48 h) is reported as 56.6 ± 0.5%, the inhibition at 12 µM ([1]; 48 h, MOI 10, 12 µM, 48 h) is reported as 92.5 ± 0.2% and the inhibition at 25 µM ([1]; 48 h, 48 h) is reported as 100%. The EC50 [1] was 5 ± 0.2 µM, the EC90 [1] was 11.6 ± 0.1 µM and the “reduction of viral load” value [2] was 2 logs. The “ZIKV genome copies/mL” value [2] was 5.1 ± 0.6 × 10^6 copies/mL, the CC50 at 48 h [3, 10] was over 200 µM and the CC50 at 48 h [4] was 143 ± 1.3 µM. It also gave an inhibition at 12 µM [5] of 100%.
For `O=S(=O)(NCCCCNc1ccnc2cc(Cl)ccc12)c1ccc(Cl)cc1` [C-Sd5, 4-Chloro-N-(4-((7-chloroquinolin-4-yl)amino)butyl)-benzenesulfonamide], the “Cervical cells IS (selectivity index, CC50/EC50)” value [1] was over 62.5, the inhibition at 6 µM ([1]; 48 h, 48 h) was 82.3 ± 0.3% and the inhibition at 12 µM ([1]; 48 h, MOI 10, 12 µM, 48 h) was 99.5 ± 0.2%. For the same compound, the inhibition at 25 µM ([1]; 48 h, 48 h) was 100%, the EC50 [1] was 3.2 ± 0.1 µM and the EC90 [1] was 7.2 ± 0.1 µM. The “reduction of viral load” value [2] was 3 logs, the “ZIKV genome copies/mL” value [2] was 2.0 ± 0.4 × 10^5 copies/mL and the CC50 at 48 h [3, 10] was over 200 µM. For the same compound, the CC50 at 48 h [4] was 52.2 ± 3.2 µM and the inhibition at 12 µM [5] was 100%.
With `O=S(=O)(NCCCCNc1ccnc2cc(Cl)ccc12)c1ccc(Br)cc1` [C-Sd6, 4-Bromo-N-(4-((7-chloroquinolin-4-yl)amino)butyl)-benzenesulfonamide] the “Cervical cells IS (selectivity index, CC50/EC50)” value [1] was over 60.6, the inhibition at 6 µM ([1]; 48 h, 48 h) was 82 ± 0.5% and the inhibition at 12 µM ([1]; 48 h, MOI 10, 12 µM, 48 h) was 94.8 ± 0.5%. For the same compound, the inhibition at 25 µM ([1]; 48 h, 48 h) was 100%, the EC50 [1] was 3.3 ± 0.1 µM and the EC90 [1] was 7.4 ± 0.2 µM. For the same compound, the “reduction of viral load” value [2] was 3 logs, the “ZIKV genome copies/mL” value [2] was 2.0 ± 0.2 × 10^5 copies/mL and the CC50 at 48 h [3, 10] was over 200 µM. For the same compound, the CC50 at 48 h [4] was 43.2 ± 0.4 µM, the “reduction of infected cells” value [6] was “over 88%” and the inhibition at 12 µM [5] was 100%.
`O=S(=O)(NCCCCNc1ccnc2cc(Cl)ccc12)c1ccc(F)cc1` [C-Sd7, N-(4-((7-chloroquinolin-4-yl)amino)butyl)-4-fluorobenzenesulfonamide] gave an inhibition at 6 µM ([1]; 48 h, 48 h) of 75.1 ± 0.8%, an inhibition at 12 µM ([1]; 48 h, MOI 10, 12 µM, 48 h) of 94.7 ± 0.7% and an inhibition at 25 µM ([1]; 48 h, 48 h) of 100%. For the same compound, the EC50 [1] was 3.6 ± 0.1 µM, the EC90 [1] was 9.9 ± 0.2 µM and the “reduction of viral load” value [2] was 2 logs. The “ZIKV genome copies/mL” value [2] was 2.6 ± 0.5 × 10^6 copies/mL, the CC50 at 48 h [3, 10] was over 200 µM and the CC50 at 48 h [4] was 74.8 ± 1.2 µM. It also gave an inhibition at 12 µM [5] of 100%.
In the case of `OC(c1cc(C(F)(F)F)nc2c(C(F)(F)F)cccc12)C1CCCCN1` [Mefloquine, (R)-(2.8-bis(trifluoromethyl)quinolin-4-yl)((S)-piperidin-2-yl)methanol hydrochloride, reference compound], the “Cervical cells IS (selectivity index, CC50/EC50)” value [1] is reported as 30.5, the “Cervical cells PFR (%)” value ([1]; MOI 10, 12 µM, 48 h) is reported as 100% and the inhibition at 6 µM ([1]; 48 h, 48 h) is reported as 97.7 ± 0.3%. For the same compound, the inhibition at 12 µM ([1]; 48 h, MOI 10, 12 µM, 48 h) was 100%, the EC50 [1] was 1.6 ± 0.1 µM and the EC90 [1] was 3.5 ± 0.2 µM. The “ZIKV genome copies/mL” value [2] was 2.0 ± 0.6 × 10^5 copies/mL, the CC50 at 48 h [3] was 48.8 ± 0.2 µM and the CC50 [7] was 17.7 ± 3.5 µM. For the same compound, the CC50 at 48 h [4] was 26.7 ± 0.9 µM, the EC50 [8] was 3.9 ± 0.2 µM and the “reduction of infected cells” value [6] was 96.3% ± 3.7. The “Vero cells PFR (%)” value [5] was 100% and the inhibition at 12 µM [5] was 100%.
In the case of `CCN(CC)CCCC(C)Nc1ccnc2cc(Cl)ccc12` (centres unmarked) [chloroquine], the EC50 (ZIKV-BR in Vero cells) is given as 12 ± 3.2 µM.
For `COc1ncnc(NS(=O)(=O)c2ccc(N)cc2)c1OC` [sulfadoxine], the IC50 [9] is listed as over 15.5 µM.
